Measured values from PMC9234961 (Journal of Medicinal Chemistry, 2022).

What was measured:
ADORA2A = ADORA2A (Homo sapiens, UniProt P29274); assay: SAFETYScan GPCR Calcium Flux, Antagonist; assay type: cell-based
Description: (§1) Supplement jm1c02175_si_002.xlsx, sheet "SAFETYScan" | column: RC50 (uM); Max Response

ADRA1A = target: T1, ADRA1A (Homo sapiens, UniProt P35348); assay: SAFETYScan GPCR Calcium Flux, Antagonist; assay type: cell-based
T1 sequence (P35348 1-466): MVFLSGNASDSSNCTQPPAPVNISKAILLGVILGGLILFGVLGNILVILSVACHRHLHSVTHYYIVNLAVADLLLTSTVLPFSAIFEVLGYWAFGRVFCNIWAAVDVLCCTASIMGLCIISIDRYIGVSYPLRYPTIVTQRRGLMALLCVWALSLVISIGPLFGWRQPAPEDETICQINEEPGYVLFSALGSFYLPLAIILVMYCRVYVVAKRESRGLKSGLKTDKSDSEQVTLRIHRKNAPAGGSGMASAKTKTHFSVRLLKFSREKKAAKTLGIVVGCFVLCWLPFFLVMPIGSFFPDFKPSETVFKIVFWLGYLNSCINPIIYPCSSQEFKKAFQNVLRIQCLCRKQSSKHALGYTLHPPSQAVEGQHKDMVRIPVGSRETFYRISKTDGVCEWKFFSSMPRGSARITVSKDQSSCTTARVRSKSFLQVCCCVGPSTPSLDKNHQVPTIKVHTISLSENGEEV
Description: as §1

AVPR1A = AVPR1A (Homo sapiens, UniProt P37288); assay: SAFETYScan GPCR Calcium Flux, Antagonist; assay type: cell-based
Sequence of AVPR1A (P37288 whole entry): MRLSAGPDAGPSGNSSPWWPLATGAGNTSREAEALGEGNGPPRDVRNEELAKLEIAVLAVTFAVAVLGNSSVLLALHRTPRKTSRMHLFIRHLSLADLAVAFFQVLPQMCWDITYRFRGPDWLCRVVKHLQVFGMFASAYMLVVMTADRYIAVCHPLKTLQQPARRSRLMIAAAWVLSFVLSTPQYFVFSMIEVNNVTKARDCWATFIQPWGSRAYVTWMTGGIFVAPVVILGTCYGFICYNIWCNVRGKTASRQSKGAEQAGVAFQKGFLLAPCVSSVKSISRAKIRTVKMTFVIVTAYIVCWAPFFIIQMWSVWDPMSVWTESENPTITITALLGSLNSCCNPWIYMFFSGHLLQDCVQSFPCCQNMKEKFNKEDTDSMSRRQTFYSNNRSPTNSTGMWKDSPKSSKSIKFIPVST
Description: as §1

CHRM1 = target: T2, CHRM1 (Homo sapiens, UniProt P11229); assay: SAFETYScan GPCR Calcium Flux, Antagonist; assay type: cell-based
T2 sequence (P11229 1-460): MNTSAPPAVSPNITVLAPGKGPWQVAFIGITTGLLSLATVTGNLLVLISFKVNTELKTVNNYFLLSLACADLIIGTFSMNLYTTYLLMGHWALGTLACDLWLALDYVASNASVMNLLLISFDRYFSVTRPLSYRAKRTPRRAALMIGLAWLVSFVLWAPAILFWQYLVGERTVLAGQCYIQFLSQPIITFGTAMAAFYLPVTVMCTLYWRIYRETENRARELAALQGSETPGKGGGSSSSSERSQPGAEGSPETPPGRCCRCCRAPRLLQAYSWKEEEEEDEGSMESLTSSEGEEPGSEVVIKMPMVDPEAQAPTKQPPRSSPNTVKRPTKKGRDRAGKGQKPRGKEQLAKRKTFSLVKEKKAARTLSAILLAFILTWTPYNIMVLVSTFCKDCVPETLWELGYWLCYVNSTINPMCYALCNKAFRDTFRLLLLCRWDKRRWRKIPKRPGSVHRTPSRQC
Description: as §1

CHRM3 = CHRM3 (Homo sapiens, UniProt P20309); assay: SAFETYScan GPCR Calcium Flux, Antagonist; assay type: cell-based
Sequence of CHRM3 (P20309 whole entry): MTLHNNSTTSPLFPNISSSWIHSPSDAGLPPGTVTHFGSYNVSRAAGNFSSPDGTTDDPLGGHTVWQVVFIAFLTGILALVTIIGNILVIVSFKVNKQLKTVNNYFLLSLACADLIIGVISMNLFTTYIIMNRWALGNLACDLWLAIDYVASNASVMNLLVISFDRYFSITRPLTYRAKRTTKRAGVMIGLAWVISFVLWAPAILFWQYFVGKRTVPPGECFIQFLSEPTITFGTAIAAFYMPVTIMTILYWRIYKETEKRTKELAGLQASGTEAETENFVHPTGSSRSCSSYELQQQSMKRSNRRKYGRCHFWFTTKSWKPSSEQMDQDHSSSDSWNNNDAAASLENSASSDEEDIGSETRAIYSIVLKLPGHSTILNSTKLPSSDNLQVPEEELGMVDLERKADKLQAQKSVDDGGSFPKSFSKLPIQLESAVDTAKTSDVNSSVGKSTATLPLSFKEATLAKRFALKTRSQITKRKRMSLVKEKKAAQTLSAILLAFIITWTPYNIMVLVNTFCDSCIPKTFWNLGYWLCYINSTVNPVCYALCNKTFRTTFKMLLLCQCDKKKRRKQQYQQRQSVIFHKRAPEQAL
Description: as §1

HRH1 = HRH1 (Homo sapiens, UniProt P35367); assay: SAFETYScan GPCR Calcium Flux, Antagonist; assay type: cell-based
Sequence of HRH1 (P35367 whole entry): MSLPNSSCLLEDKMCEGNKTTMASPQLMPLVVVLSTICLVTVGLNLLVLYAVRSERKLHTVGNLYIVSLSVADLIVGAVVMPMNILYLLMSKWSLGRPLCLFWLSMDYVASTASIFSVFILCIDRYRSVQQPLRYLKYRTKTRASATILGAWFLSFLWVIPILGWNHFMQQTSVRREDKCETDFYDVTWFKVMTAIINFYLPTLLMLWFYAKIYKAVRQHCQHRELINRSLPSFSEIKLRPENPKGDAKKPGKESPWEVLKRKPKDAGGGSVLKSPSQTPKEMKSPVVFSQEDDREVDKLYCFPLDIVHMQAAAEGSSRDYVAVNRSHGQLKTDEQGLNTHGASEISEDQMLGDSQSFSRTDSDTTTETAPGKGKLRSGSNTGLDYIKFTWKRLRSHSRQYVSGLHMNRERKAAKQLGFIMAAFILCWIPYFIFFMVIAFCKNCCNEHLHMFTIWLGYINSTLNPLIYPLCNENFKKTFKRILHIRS
Description: as §1

HTR2A = HTR2A (Homo sapiens, UniProt P28223); assay: SAFETYScan GPCR Calcium Flux, Antagonist; assay type: cell-based
Sequence of HTR2A (P28223 whole entry): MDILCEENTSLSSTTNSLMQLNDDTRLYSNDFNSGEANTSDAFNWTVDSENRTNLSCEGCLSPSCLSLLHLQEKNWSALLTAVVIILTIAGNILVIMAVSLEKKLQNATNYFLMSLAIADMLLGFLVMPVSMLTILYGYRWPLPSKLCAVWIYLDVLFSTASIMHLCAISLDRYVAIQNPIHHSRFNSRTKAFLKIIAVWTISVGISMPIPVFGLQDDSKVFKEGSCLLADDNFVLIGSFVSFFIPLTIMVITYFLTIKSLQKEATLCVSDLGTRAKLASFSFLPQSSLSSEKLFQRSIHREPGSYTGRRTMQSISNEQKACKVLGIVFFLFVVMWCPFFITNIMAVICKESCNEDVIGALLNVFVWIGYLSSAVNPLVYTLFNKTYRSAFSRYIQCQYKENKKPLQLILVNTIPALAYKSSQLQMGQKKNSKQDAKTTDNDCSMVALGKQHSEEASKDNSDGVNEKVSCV
Description: as §1

AR = target: T3, AR (Homo sapiens, UniProt P10275); assay: SAFETYScan NHR Nuclear Translocation, Antagonist; assay type: cell-based
T3 sequence (P10275 1-920): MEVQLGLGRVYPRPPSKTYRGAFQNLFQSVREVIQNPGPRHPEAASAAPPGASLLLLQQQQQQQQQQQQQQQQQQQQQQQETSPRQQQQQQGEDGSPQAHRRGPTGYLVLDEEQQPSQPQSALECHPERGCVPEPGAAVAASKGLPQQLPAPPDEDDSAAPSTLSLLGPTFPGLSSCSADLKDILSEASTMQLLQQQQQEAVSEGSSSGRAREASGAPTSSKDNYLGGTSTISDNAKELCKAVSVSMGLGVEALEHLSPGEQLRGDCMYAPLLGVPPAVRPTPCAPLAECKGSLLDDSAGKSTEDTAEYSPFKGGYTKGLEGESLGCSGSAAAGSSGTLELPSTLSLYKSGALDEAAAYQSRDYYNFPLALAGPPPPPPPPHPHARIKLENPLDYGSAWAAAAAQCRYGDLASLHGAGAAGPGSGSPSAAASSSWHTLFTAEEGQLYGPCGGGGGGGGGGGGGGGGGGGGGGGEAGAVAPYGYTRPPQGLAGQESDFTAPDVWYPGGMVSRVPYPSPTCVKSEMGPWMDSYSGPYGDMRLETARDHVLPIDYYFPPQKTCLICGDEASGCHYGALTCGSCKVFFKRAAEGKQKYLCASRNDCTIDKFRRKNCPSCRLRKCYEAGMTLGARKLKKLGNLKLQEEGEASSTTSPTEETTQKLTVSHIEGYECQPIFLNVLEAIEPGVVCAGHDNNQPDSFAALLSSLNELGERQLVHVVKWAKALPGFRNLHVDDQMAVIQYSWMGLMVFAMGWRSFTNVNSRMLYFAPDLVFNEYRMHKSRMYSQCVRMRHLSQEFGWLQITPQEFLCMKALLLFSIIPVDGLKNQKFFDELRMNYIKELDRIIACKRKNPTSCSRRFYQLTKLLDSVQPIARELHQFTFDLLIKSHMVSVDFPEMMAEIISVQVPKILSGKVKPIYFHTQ
Description: as §1

DAT = DAT (Homo sapiens, UniProt Q01959); assay: SAFETYScan Transporter, Blocker; assay type: cell-based
Sequence of DAT (Q01959 whole entry): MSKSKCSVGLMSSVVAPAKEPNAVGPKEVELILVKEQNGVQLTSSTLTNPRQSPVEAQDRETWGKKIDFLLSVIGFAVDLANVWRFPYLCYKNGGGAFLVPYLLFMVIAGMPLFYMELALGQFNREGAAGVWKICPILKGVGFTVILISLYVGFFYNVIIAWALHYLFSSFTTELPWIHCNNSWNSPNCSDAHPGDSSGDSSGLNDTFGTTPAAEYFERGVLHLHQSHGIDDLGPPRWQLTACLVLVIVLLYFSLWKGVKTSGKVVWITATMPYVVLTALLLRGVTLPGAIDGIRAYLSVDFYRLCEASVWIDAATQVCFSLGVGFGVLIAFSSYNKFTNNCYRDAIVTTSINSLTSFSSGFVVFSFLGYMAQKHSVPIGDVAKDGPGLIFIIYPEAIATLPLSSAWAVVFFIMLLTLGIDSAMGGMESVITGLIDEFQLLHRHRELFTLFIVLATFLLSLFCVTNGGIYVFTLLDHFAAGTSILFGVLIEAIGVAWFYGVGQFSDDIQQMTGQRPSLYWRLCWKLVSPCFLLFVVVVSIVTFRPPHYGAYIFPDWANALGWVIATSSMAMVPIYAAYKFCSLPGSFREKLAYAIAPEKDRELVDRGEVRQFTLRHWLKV
Description: as §1

NET = NET (Homo sapiens, UniProt P23975); assay: SAFETYScan Transporter, Blocker; assay type: cell-based
Sequence of NET (P23975 whole entry): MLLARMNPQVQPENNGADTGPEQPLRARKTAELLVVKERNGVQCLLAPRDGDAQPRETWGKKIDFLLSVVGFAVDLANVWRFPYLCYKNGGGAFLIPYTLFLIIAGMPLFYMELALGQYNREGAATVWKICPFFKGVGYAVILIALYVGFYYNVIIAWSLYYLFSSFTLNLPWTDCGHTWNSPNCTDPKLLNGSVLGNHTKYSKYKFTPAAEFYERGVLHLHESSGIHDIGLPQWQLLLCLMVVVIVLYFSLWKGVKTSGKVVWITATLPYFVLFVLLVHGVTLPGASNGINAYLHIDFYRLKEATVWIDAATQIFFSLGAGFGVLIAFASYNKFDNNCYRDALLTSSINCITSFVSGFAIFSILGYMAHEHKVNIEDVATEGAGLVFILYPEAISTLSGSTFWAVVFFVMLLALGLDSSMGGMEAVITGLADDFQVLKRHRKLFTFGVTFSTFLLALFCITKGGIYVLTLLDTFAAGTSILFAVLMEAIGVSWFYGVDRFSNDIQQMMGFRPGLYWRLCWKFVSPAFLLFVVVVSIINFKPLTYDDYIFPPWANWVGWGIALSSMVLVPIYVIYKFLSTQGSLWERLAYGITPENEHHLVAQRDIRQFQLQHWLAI
Description: as §1

SERT = SERT (Homo sapiens, UniProt P31645); assay: SAFETYScan Transporter, Blocker; assay type: cell-based
Sequence of SERT (P31645 whole entry): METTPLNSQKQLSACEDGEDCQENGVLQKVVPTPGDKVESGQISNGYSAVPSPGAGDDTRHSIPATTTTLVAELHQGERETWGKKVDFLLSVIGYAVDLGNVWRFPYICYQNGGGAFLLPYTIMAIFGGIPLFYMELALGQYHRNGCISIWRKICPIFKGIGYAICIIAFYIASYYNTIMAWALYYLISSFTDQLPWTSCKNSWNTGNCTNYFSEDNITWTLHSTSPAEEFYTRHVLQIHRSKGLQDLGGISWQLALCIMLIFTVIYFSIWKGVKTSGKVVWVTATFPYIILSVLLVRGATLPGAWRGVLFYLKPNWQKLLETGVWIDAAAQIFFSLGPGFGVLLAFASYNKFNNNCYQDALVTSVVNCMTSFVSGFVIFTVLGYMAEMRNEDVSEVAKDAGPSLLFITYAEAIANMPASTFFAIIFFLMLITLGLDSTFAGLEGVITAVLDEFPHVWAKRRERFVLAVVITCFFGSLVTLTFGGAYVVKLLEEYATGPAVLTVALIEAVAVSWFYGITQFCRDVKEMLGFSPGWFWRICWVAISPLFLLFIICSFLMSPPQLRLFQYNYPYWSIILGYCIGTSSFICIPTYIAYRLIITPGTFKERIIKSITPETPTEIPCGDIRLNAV
Description: as §1

[1] = target: BCL6 in OCI-Ly1 DLBCL xenograft (Homo sapiens, UniProt P41182); details: single dose 50 mg/kg po
Description: weighed and dosing volumes adjusted accordingly.
7.3.2 Preparation of OCI-Ly1 xenograft model in mouse
Twenty days post injection 24 tumour-bearing mice (between 0.4 and 0.6 cm3) were selected for the study
Mice were then grouped n=3 for the following time points: 12, 16 & 24 hours
Compounds and vehicle were administered po (formulated as described in Supplementary experimental
single treatment of vehicle.
Blood (~1 mL) was taken from anaesthetized mice, via intracardiac puncture, using a 27 gauge needle and
a syringe pre-coated with heparin (200 Units/mL), The heparinized blood was microcentrifuged for 2
minutes and ~200 uL of plasma was aspirated to a labelled tube, frozen on dry-ice and dedicated to
pharmacokinetic analysis (PK). Each tumour was excised, divided into two halves, weighed and then snap
frozen in liquid nitrogen, dedicating one half to PK analysis and the other half to pharmacodynamic analysis (PD). All frozen material was permanently stored in a -80°C freezer.
7.3.6 Tumour lysis and Wes method
Tumours were lysed in lysis buffer (50 mM Tris-HCl, pH 7.4, 150 mM NaCl, 1% Triton X-100 (v/v), 1 mM PMSF, 1 mM activated sodium vanandate, 1 mM EDTA, phosphatase inhibitors 2 and 3 (1:50m dilution) and protease cocktail (1:100 dilution)) using reinforced homogenizing tubes containing metal beads using a Precellys 24 with cryolys cooling at 6000 rpm, 2 × 20 s (Stretton Scientific). Lysates were incubated on ice for 15 minutes, spun at 14000 rpm at 4 °C for 10 minutes and supernatants collected and aliquoted.
Samples were stored at -80 °C until use. Protein concentration was determined by diluting 1:10 with lysis buffer and measuring on Direct Detect® spectrometer according to manufacturer’s instructions.
according to manufacturer’s instructions (ProteinSimple) with multiplexing BCL6 (CST14895 at 1:150
Data was analysed using Compass for SW software. BCL6 data was normalised to GAPDH and transferred to GraphPad Prism 7.

HT = assay: Cell proliferation assay (14 days), HT
Description: (§2) Cells were seeded in 96-well culture plates at a density of 2500 cells/well in RPMI-1640 medium (Sigma-
(§3) Aldrich) supplemented with 10% FBS (Gibco). Compounds were initially dispensed into 96-well U-bottom
(§4) plates using an Echo 550 acoustic dispenser (Labcyte Inc.), then diluted in RPMI-1640 medium and
(§5) transferred onto the cells. Cells were treated with 8 compound concentrations in duplicate, ranging from
(§6) with compound for 14 days, with medium changes at days 3, 7 and 10 carried out as follows: fresh 96-well
(§7) cell culture plates were prepared containing 100 µl medium plus compound at the assay concentrations
(§8) (white plates were used on day 10 to optimise luminescence measurement). Assay plates containing cells
(§9) were vortexed to mix and cell density in one control well was counted using a Coulter Z2 cell counter
(§10) (Beckman Coulter). The volume of medium containing 2500 cells in the control well was calculated and this volume of cells was transferred from every well of the assay plates to the corresponding well of the fresh plates containing compound. After 14 days, CellTiter Glo reagent (Promega) was added to the medium in each well of the assay plate at a ratio of 1:2, mixed on a plate shaker, then incubated at room temperature for 10 minutes. Luminescence was measured using an Envision plate reader (Perkin Elmer) and the relative luminescence at each compound concentration, compared to DMSO alone, was calculated. GI50 were determined using a 4-parameter curve fit in Dotmatics (Bishops Stortford, UK).

SU-DHL-4 = assay: Cell proliferation assay (14 days), SU-DHL-4
Description: as §2, §3, §4, §5, §6, §7, §8, §9, §10

Sequence of ADORA2A (P29274 whole entry): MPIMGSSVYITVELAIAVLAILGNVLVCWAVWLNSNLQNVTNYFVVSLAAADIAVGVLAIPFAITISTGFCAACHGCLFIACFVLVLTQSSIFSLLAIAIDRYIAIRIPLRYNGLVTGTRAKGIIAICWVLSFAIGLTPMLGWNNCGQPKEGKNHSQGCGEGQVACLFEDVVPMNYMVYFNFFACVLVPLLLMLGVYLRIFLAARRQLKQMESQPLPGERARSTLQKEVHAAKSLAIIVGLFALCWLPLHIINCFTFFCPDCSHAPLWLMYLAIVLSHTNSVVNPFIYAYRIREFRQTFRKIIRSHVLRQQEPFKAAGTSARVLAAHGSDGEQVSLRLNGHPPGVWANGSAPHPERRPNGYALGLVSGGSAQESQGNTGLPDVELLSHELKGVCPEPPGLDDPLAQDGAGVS

`C[C@H]1C[C@@H](O)CN(c2ncc(Cl)c(Nc3ccc4c(c3)c3c(c(=O)n4C)OCC(F)(F)[C@H](C4CC4)N3)n2)C1` [12a CCT373566, (S)-10-((5-Chloro-2-((3R,5S)-3-hydroxy-5-methylpiperidin-1-yl)pyrimidin-4-yl)amino)-2-cyclopropyl-3,3-difluoro-7-methyl-1,2,3,4-tetrahydro-[1,4]oxazepino[2,3-c]quinolin-6(7H)-one] was tested, and the Emax (ADORA2A; read-out: Max Response) was 4.91%, the IC50 (ADORA2A; read-out: RC50 (IC50)) was over 10 µM and the Emax (ADRA1A; read-out: Max Response) was 0%. It also gave an IC50 (ADRA1A; read-out: RC50 (IC50)) of over 10 µM, an Emax (AVPR1A; read-out: Max Response) of 0% and an IC50 (AVPR1A; read-out: RC50 (IC50)) of over 10 µM. It also gave an Emax (CHRM1; read-out: Max Response) of 3.44%, an IC50 (CHRM1; read-out: RC50 (IC50)) of over 10 µM and an Emax (CHRM3; read-out: Max Response) of 0%. For the same compound, the IC50 (CHRM3; read-out: RC50 (IC50)) was over 10 µM, the Emax (HRH1; read-out: Max Response) was 0% and the IC50 (HRH1; read-out: RC50 (IC50)) was over 10 µM. For the same compound, the Emax (HTR2A; read-out: Max Response) was 1.76%, the IC50 (HTR2A; read-out: RC50 (IC50)) was over 10 µM and the Emax (AR; read-out: Max Response) was 0%. For the same compound, the IC50 (AR; read-out: RC50 (IC50)) was over 10 µM, the Emax (DAT; read-out: Max Response) was 0% and the IC50 (DAT; read-out: RC50 (IC50)) was over 10 µM. It also gave an Emax (NET; read-out: Max Response) of 8.36%, an IC50 (NET; read-out: RC50 (IC50)) of over 10 µM and an Emax (SERT; read-out: Max Response) of 0%. The IC50 (SERT; read-out: RC50 (IC50)) was over 10 µM, the adverse events ([1]; OCI-Ly1 xenograft SCID mice) was “No visible adverse events were observed” and the “tumor concentrations versus plasma concentrations” value ([1]; 12, 16, 24 h) was “lower than plasma concentrations at all time points”. The “BCL6 levels in tumor” value ([1]; 12, 16 and 24 h after dosing) was “significantly decreased at all time points”, the “HT GI50” value (HT; 14-day proliferation assay) was “Very potent growth inhibition” and the GI50 (HT; Homo sapiens, HT, 336 h, read-out: HT GI50) was 0.008 µM. The “SU-DHL-4 GI50” value (SU-DHL-4; 14-day proliferation assay) was “Very potent growth inhibition” and the GI50 (SU-DHL-4; Homo sapiens, SU-DHL-4, 336 h, read-out: SU-DHL-4 GI50) was 0.0125 µM.
